{
  "source": "patent US20070243154A1",
  "about": "“Solubilization of acid ingredients” (L'OREAL, priority 2006, published 2007)",
  "key": {"[1]": {"assay": "Solubility of salicylic acid in organic compounds liquid at room temperature", "type": "physicochemical", "conditions": "dissolved at 60° C., cooled to room temperature, left 2 hours", "description": "In this example, the solubility of salicylic acid in different liquid materials was compared with mineral oil.\nPreparation of Highly Concentrated Salicylic Acid Solutions\nSalicylic acid was mixed with various organic compounds, liquid at room temperature, and heated to 60° C. The solution was stirred until all the salicylic acid was dissolved and then cooled to room temperature with stirring. The solution was left undisturbed for 2 hours and observed for crystallization.\nThe results are expressed by weight of the acid in the dissolving organic compound liquid at room temperature."}, "[2]": {"conditions": "cited from earlier work"}},
  "data": [
    {"smiles": "O=C(O)c1ccccc1O", "note": "[Salicylic acid, 2-hydroxybenzoic acid]", "values": [
      {"measurement": "solubility of salicylic acid", "setting": "[1]; in C12-C15 alkyl benzoate", "value": 4.8, "unit": "% w/w"},
      {"measurement": "solubility of salicylic acid", "setting": "[1]; in glyceryl isostearate", "value": 8.25, "unit": "% w/w"},
      {"measurement": "solubility of salicylic acid", "setting": "[1]; in isostearic acid", "value": 6.5, "unit": "% w/w"},
      {"measurement": "solubility of salicylic acid", "setting": "[1]; in isostearyl alcohol", "value": 9.9, "unit": "% w/w"},
      {"measurement": "solubility of salicylic acid", "setting": "[1]; in oleic acid, observed for crystallization, by weight of acid in the solvent", "value": 5.6, "unit": "% w/w"},
      {"measurement": "solubility of salicylic acid", "setting": "[1]; in propylene glycol isostearate", "value": 9.9, "unit": "% w/w"},
      {"measurement": "volume of alcohol in which 1 g dissolves", "setting": "[2]; ethanol, 1 g dissolves in the stated volume", "value": 2.7, "unit": "mL"},
      {"measurement": "volume of ether in which 1 g dissolves", "setting": "[2]; ether, 1 g in the stated volume", "value": 3, "unit": "mL"},
      {"measurement": "volume of water in which 1 g dissolves", "setting": "[2]; water, 1 g in the stated volume", "value": 460, "unit": "mL"}
    ]}
  ]
}
